The subject of experiment [1] is mice (C57BL/6 strain, male). In words: Forced swim test (5S-ManNAcF, ManNAc, intracerebroventricular administration, 3 weeks). It is filed as in vivo, mouse. The conditions noted are these: 0.1 mmol/L in saline, intracerebroventricular by osmotic pump for 3 weeks, vs saline. The method, then:
Using 8-9-week-old mice (C57BL/6 strain, male) having a catheter transplanted in the cerebroventricle, and carrying a connected osmotic pump (0.11 μl/hr, Alzet, No1004, 100 μl is released in 28 days) on the back, 5S-ManNAcF (0.01, 0.1 mmol/L) or ManNAc (100 mmol/L) dissolved in saline was intracerebroventricularly administered for 3 weeks (administration group: each 9-10 mice). The mice of the control group in the same age in weeks were administered with saline (control group: each 9-10 mice, SAL).
A forced swim test similar to that in Example 1 was performed at 3 weeks after administration.

In experiment [2] the test system is mice (C57BL/6 strain, male). In words: Forced swim test (5S-ManNAcF intracerebroventricular administration, one week). The experiment is classed as in vivo, mouse. The method, then: Similar to Example 3, 5S-ManNAcF (0.01, 0.1, 1 mmol/L administration group: each 9-10 mice) was administered intracerebroventricularly. The dosing period was one week. The mice of the control group in the same age in weeks were administered with saline (control group: each 9-10 mice, SAL).
A forced swim test similar to that in Example 1 was performed at 1 week after administration.

For experiment [3], the system named is mice (C57BL/6 strain, male). The experiment in a line: Forced swim test (ManNAc oral administration). The note with it: juvenile mice (10- to 14-week-old), 5 mg/ml in drinking water for 4 weeks, 6 min test; control group about 2 min. The experiment is classed as in vivo, mouse. The method, then:
ManNAc was dissolved in drinking water, and drinking water having a concentration of 5 mg/ml was administered to juvenile mice (C57BL/6 strain, male) by administration by free drinking of water for 4 weeks in total from 10-week-old to 14-week-old (ManNAc administration group: 16 mice). The mice of the control group in the same age in weeks were allowed to take drinking water freely (control group: 16 mice).
Similarly, 5 mg/ml ManNAc-containing drinking water was administered to aged mice (C57BL/6 strain, male) by administration by free drinking of water for 4 weeks in total from […] (ManNAc administration group: 14 mice). The mice of the control group in the same age in weeks were allowed to take drinking water freely (control group: 15 mice).
According to the method described in S. C. […] The mice were graded with regard to 4 evaluation criteria: swimming, immobility, climbing, and others, and a dominant behavior was recorded every 5 sec. […]
When a mouse is forcibly placed in a water pool, it tries to swim to the shore. […] The forced swim test for 6 min enables quantification of immobility in a water tank, and the immobility has been proposed to be similar to “behavioral despair”, observed in depression.

For experiment [4], the system named is juvenile mice (C57BL/6 strain, male). The experiment in a line: Social defeat test. It is filed as in vivo, mouse. The note with it: defeat stress experience mice, 5 mg/ml in drinking water for 4 weeks, latter 3 min of 5 min. The method, then:
Under conditions similar to those in Example 1, ManNAc was administered to juvenile mice (C57BL/6 strain, male) by administration by free drinking of water for 4 weeks in total from 10-week-old to 14-week-old (ManNAc administration group: 14 mice). The mice of the control group in the same age in weeks were allowed to take drinking water freely (control group: 14 mice).
A mouse that lived with a more aggressive mouse (aggressive mouse) for a given period (1 hr) stays away from the aggressive mouse thereafter. This test method reflects higher brain functions, and was developed as a social defeat test and widely utilized as a system for evaluating social anxiety (Nature (2008) 455, 894-902). The ManNAc administration group and the control group were made to stay together with an aggressive mouse (one-to-one) for 1 hr per day, and the defeat stress was imposed for 5 days. […] The number of times the defeat stress experience mouse intruded a contact zone formed on the periphery of the compartment in which the aggressive mouse was housed, and the sniffing time of the defeat stress experience mouse were measured in the latter 3 minutes of 5 minutes. […]

The subject of experiment [5] is mice (BALB/c and C57BL/6 strains). The conditions noted are these: BALB/c strain, fluoxetine 10 mg/kg/day; drug non-administration group about 125-130 sec; cited from earlier work.

Turning to `O=C(CF)NC1C(O)SC(CO)[C@@H](O)C1O` (stereo partly drawn) [5S-ManNAcF], the “total immobilization time as compared to the control group” value in experiment [1] is recorded as “significantly decreased”; in experiment [2] (0.1 mmol/L in saline, intracerebroventricular by osmotic pump for one week, vs saline) it was “significantly decreased”. For the same molecule, the “effect on total immobilization time, comparison of concentrations” value in experiment [2] (0.1 mmol/L vs 1 mmol/L, intracerebroventricular for one week) is reported as “tendency of a higher effect at a concentration of 0.1 mmol/L than a high dose of 1 mmol/L”.

Consider `CC(=O)N[C@@H]1C(O)O[C@H](CO)[C@@H](O)[C@@H]1O` (stereo partly drawn) [ManNAc, N-acetyl-D-mannosamine], for which, in experiment [3], the total immobilization time result is reported as “about 1 min”. For the same molecule, the “contact zone intrusion number” value in experiment [4] is “a significant difference was not found”. Moreover, the “sniffing time (sniffing behavior)” value in experiment [4] (water group about 20 sec or below, stress non-experience group about 30 sec) is “about 30 sec”.

For `CNCCC(Oc1ccc(C(F)(F)F)cc1)c1ccccc1` (stereo not shown) [fluoxetine], the immobilization time entry in experiment [5] is recorded as “about 100 sec”.

(Values after patent US9968624B2, “Depression treatment agent” (THE UNIVERSITY OF TOKYO, priority 2014, dated 2018).)
